Drawing on PubChem BioAssay (NCI), this text covers TGI and GI50 for 19 compounds.

Each structure is given as a SMILES string.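 Five concentrations, 48 hours, 96-well plates. Abbreviation: GI50, concentration required for 50% inhibition of growth. Definition used: TGI = concentration required for complete inhibition of growth.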 Where only a bound is given, the exact number is not on record here.

Assay in all cases: inhibition of tumour cell growth, NCI panel, 48 h
The test system of test [1] is A549 NSCLC.
Test [2] relates to ACHN renal.
In test [3] the test system is HCC-2998 colon.
Test [4] has as its system HCT-15 colon.
Test [5] deals with HOP-62 NSCLC.
The subject of test [6] is NCI-H23 lung.
In test [7] the test system is SR leukemia.
The subject of test [8] is SW-620 colon.
For test [9], the system named is TK-10 renal.
Test [10] concerns UACC-62 melanoma.

In the case of `Cc1cccc(C)c1NC(=O)/C(Cl)=C(/Cl)C(=O)O`, the TGI in test [1] is 45.3 µM; in test [2], 29.4 µM; in test [3], 32.2 µM; in [4], 34.8 µM; in [5], above 81.7 µM; in test [6], 38.6 µM. For the same compound, the TGI in test [7] was above 57.1 µM; in [8], 14.9 µM; in [9], 21.6 µM; in test [10], 20.6 µM.
In the case of `COc1cc(Cl)cc(-c2nn(C(=O)NCCN3CCN(C)CC3)cc2-c2ccncc2)c1`, the GI50 in [1] was 9.55 µM; in test [2], 4.16 µM; in [3], 17.5 µM; in test [4], 17.2 µM; in test [5], 5.87 µM; in test [6], 20.1 µM. For the same compound, the GI50 was 29.8 µM in test [7], 33.1 µM in test [8], 3.67 µM in [9] and 4.95 µM in [10]. Besides, the TGI in test [1] is above 100 µM; in test [2], above 100 µM; in [3], 39.1 µM; in test [4], 69.9 µM; in test [5], 44.5 µM; in test [6], 82 µM. The TGI in test [7] is above 100 µM; in test [8], above 100 µM; in test [9], above 100 µM; in [10], 20.3 µM.
As to `Clc1ccc(-n2nnc(C3=NCCCN3)c2-c2ccccc2)cc1`, the TGI in test [1], in test [2], in test [3], in test [4], in test [5] and in test [6] was above 100 µM in each case. The TGI in test [7], in test [8], in test [9] and in [10] was above 100 µM in each case.
As for `CC(C)=CC(=O)Oc1ccc([N+](=O)[O-])cc1`, the TGI in [1], in test [2], in [3], in test [4], in test [5] and in test [6] was above 100 µM throughout. Also, the TGI in test [7], in test [8], in test [9] and in test [10] was above 100 µM throughout.
Turning to `Cc1cc(O)c(C(=O)CC2(O)C(=O)Nc3c(Cl)cc(Cl)cc32)c(=O)o1` (configuration not stated), the TGI in test [1], in test [2], in test [3], in [4], in test [5] and in test [6] was above 100 µM throughout. Further, the TGI in [7], in [8], in test [9] and in [10] was above 100 µM in each case.
For `Cn1nc(-c2ccccc2)c(N=[N+]=[N-])cc1=O`, the TGI in test [1], in [2], in test [3], in test [4], in [5] and in test [6] was above 100 µM in each case. Also, the TGI in test [7], in [8], in test [9] and in [10] was above 100 µM throughout.
With `Cc1ccccc1CN1CC2=C(CCN(Cc3ccccc3)C2=O)N2CCN=C12`, the TGI in test [1] was above 100 µM; in [2], above 100 µM; in [3], above 70.6 µM; in test [4], above 100 µM; in test [5], above 100 µM; in [6], above 100 µM. For the same compound, the TGI in test [7], in test [8], in test [9] and in test [10] was above 100 µM each time.
In the case of `COc1ccc2c(c1)nc(N)c1c3cc(OC)c(OC)cc3cn21`, the GI50 in test [1] is 0.0925 µM; in test [2] it was below 0.01 µM; in [3] it was 0.0434 µM; in [4] it was below 0.01 µM; in test [7], below 0.01 µM; in [8], below 0.01 µM. Moreover, the GI50 in [9] is 3.48 µM; in test [10], below 0.01 µM. Moreover, the TGI stood at 16.6 µM in test [1]; 16.3 µM in test [2]; 16.5 µM in test [3]; 13.3 µM in [4]; 16.9 µM in [5]; 5.7 µM in test [6]. For the same compound, the TGI in [7] stood at 5.04 µM; in test [8] it was 19.8 µM; in [9], 20.8 µM; in test [10], 21.7 µM.
For `COc1ccc(CNc2nc3cc(N)cc(N)c3nc2-c2ccccc2)cc1OC`, the GI50 in [1] was 23.6 µM; in [2], 14.4 µM; in [3], 17 µM; in test [4], 28 µM; in test [5], 18.8 µM; in test [6], 16.9 µM. Also, the GI50 was 2.94 µM in test [7], 7.77 µM in test [8], 16.8 µM in test [9] and 11.7 µM in test [10]. For the same compound, the TGI is above 70.6 µM in test [1]; 32 µM in test [2]; 39.8 µM in test [3]; above 94.1 µM in [4]; 34.4 µM in test [5]; 35.7 µM in test [6]. Besides, the TGI in test [7] is 25.9 µM; in test [8], above 58.9 µM; in test [9], 32.8 µM; in test [10], 24.9 µM.
Turning to `N=C1c2nc3n(c2C(=O)c2nc4n(c21)CCCC4)CCCC3`, the GI50 in test [1] was 1.98 µM; in test [2], 20.5 µM; in test [3] it was 3.74 µM; in [4], 2.07 µM; in test [5], 0.921 µM; in test [6] it was 1.37 µM. The GI50 was 13.4 µM in test [7], 3.8 µM in [8], 52.6 µM in test [9] and 0.784 µM in test [10]. Besides, the TGI in test [1] was 4.33 µM; in test [2] it was above 100 µM; in [3], 12.8 µM; in test [4], 6.62 µM; in [5], 3.54 µM; in [6] it was 3.86 µM. Moreover, the TGI in test [7] is above 79.3 µM; in test [8] it was 24.4 µM; in test [9], above 100 µM; in test [10], 2.04 µM.
With `CCC1=C[C@@H]2CN(C1)Cc1c([nH]c3ccccc13)[C@@](C(=O)OC)(c1cc3c(cc1OC)N(C=O)[C@H]1[C@@](O)(C(=O)OC)[C@H](OC(C)=O)[C@]4(CC)[C@@H]5C[C@@H]5CN5CC[C@]31[C@@H]54)C2`, the GI50 in test [1] is 0.003 µM; in test [2] it was 0.0315 µM; in test [3], 0.00144 µM; in test [4], 0.107 µM; in test [5], 0.00158 µM; in test [6], 0.00318 µM. Further, the GI50 in [7] is below 0.000625 µM; in [8], 0.000656 µM; in test [9], 0.315 µM; in [10], below 0.000625 µM. The TGI in test [1], in test [2], in [3], in test [4], in [5] and in test [6] was above 6.25 µM throughout. The TGI in test [8], in test [9] and in [10] was above 6.25 µM throughout.
On to `COc1ccc(C(=O)C(c2ccc(OC)cc2)C2(O)C(=O)Nc3c(C)cc(Cl)cc32)cc1` (configuration not stated), for which the TGI in [1], in test [2], in test [3], in [4], in [5] and in test [6] was above 100 µM in each case. In addition, the TGI in test [7] is 48.2 µM; in test [8] it was above 100 µM; in [9] it was above 100 µM; in [10] it was 54.2 µM.
For `C=C1CC[C@@]2(C#N)[C@H]3[C@H](CC[C@@H]2C)[C@@H](C)C[C@@H](CC(C)(C)C#N)[C@H]13`, the GI50 in test [1] was 3.52 µM; in [2], 1.03 µM; in [3], 2.95 µM; in test [4] it was 0.604 µM; in test [5], 2.33 µM; in test [6], 1.06 µM. Moreover, the GI50 was 1.57 µM in test [7], 4.65 µM in test [8], 0.969 µM in test [9] and 2.45 µM in test [10]. For the same compound, the TGI amounted to 34.8 µM in [1]; 14.7 µM in [2]; 20.6 µM in [3]; 23.1 µM in test [4]; 24.3 µM in [5]; 32.6 µM in test [6]. For the same compound, the TGI in test [7] turned out to be 40.3 µM; in test [8], 22.1 µM; in test [9], 31.5 µM; in [10], 16.7 µM.
In the case of `Cc1cc(C)c(O)c(CNCCCCCCNCc2cc(C)cc(C)c2O)c1`, the GI50 is 2.23 µM in test [1]; 1.91 µM in test [2]; 1.02 µM in test [3]; 1.4 µM in test [4]; 1.77 µM in test [5]; 1.7 µM in [6]. Moreover, the GI50 in test [7] was 1.34 µM; in [8] it was 1.81 µM; in [9] it was 1.39 µM; in test [10], 1.82 µM. The TGI in test [1] was 4.72 µM; in test [2], 3.69 µM; in [3], 2.39 µM; in [4] it was 3.05 µM; in [5] it was 3.6 µM; in [6], 3.28 µM. The TGI in [7] came to 3.84 µM; in test [8], 3.56 µM; in [9], 2.92 µM; in [10], 3.41 µM.
Take `C=C1C[C@@H]2C/C=C/C(=O)C/C(C)=C\C=C\C(=O)O[C@H](C=O)C/C(C)=C/[C@H](C1)O2`: the GI50 in test [1] is 1.98 µM; in test [2] it was 6.64 µM; in [3], 0.77 µM; in [4], 0.485 µM; in test [5], 1.75 µM; in test [6], 5.16 µM. The GI50 in test [7] was 1.18 µM; in test [8], 0.449 µM; in test [9], 3.62 µM; in test [10], 0.818 µM. For the same compound, the TGI in test [1] is above 100 µM; in [2], 21.8 µM; in test [3], 3.32 µM; in test [4], 16.2 µM; in test [5] it was 17.3 µM; in test [6] it was 23.1 µM. In addition, the TGI in test [7] amounted to 6.77 µM; in test [8], 15.7 µM; in [9], 18 µM; in test [10], 14 µM.
Consider `Cc1nc2c(=O)[nH]c(=O)n(C)c2[nH]c1=O`, for which the TGI in test [1], in [2], in [3], in [4], in [5] and in [6] was above 100 µM each time. In addition, the TGI in test [7], in test [8], in [9] and in [10] was above 100 µM in each case.
Take `CCN1C(=O)N(CC)C2C1NN=c1s/c(=C3\C(=O)N(CC(C)C)c4ccccc43)c(=O)n12` (configuration not stated): the GI50 was 0.957 µM in [1]; 0.723 µM in test [2]; 2.38 µM in [3]; 0.438 µM in test [4]; 0.797 µM in [5]; 2.19 µM in [6]. The GI50 in test [7] was 0.522 µM; in test [8], 0.444 µM; in test [9], 8.08 µM; in test [10], 0.603 µM. For the same compound, the TGI is above 100 µM in test [1]; above 45 µM in test [2]; above 100 µM in [3]; above 100 µM in test [4]; 34.8 µM in test [5]; above 100 µM in test [6]. In addition, the TGI in test [7] is above 100 µM; in test [8] it was above 100 µM; in test [9], above 56.6 µM; in test [10], 65.5 µM.
As for `c1nc2cscc2c2cscc12`, the TGI in test [1], in [2], in [3], in [4], in [5] and in test [6] was above 100 µM each time. Further, the TGI in [7], in test [8], in test [9] and in [10] was above 100 µM throughout.
Consider `CC1(C)COCN1COC1CCCCC1`, for which the TGI in [1], in [2], in test [3], in [4], in [5] and in [6] was above 100 µM throughout. In addition, the TGI is 44 µM in [7], above 100 µM in test [8], above 100 µM in [9] and above 100 µM in test [10].
